Laboratory results as given in ChEMBL document CHEMBL6074662, “Antibacterial, Antibiofilm, and Anti-inflammatory Effects of a Novel Thrombin-Derived Peptide in Sepsis Models: Insights into Underlying Mechanisms” (J Med Chem, 2024).
Calls of active or inactive are those of the source. The calls are words filed in the database; no cut-off is given here.

Columns and labels:
Escherichia coli = assay: Antibacterial activity against Escherichia coli KCTC 1682 assessed as zone of clearance incubated for 4 hrs in presence of pepsin by radical diffusion assay; assay type: functional, organism-based
[1] = Proteolytic stability of compound assessed as trypsin (unknown origin)-mediated drug degradation at 150 uM incubated for 24 hrs by RP-HPLC analysis; assay type: ADME; conditions: human
Pseudomonas aeruginosa [2] = assay: Bactericidal activity against multidrug-resistant Pseudomonas aeruginosa CCARM 2095 at 0.5 to 2 uM incubated for 12 hrs by time-kill assay; assay type: functional, organism-based; conditions: dose 0.5-2 µM
Pseudomonas aeruginosa [3] = assay: Synergistic bactericidal activity against multidrug-resistant Pseudomonas aeruginosa CCARM 2095 at 0.5 to 2 uM incubated for 12 hrs in presence of oxacillin by time-kill assay; assay type: functional, organism-based; conditions: dose 0.5-2 µM
Lipopolysaccharide (LPS) [4] = assay: Displacement of BODIPY-TR-cadaverine from cell-free LPS (unknown origin) incubated for 30 mins by fluorescence based assay; conditions: dose <= 32.0 µM
Lipopolysaccharide (LPS) [5] = assay: Displacement of BODIPY-TR-cadaverine from Escherichia coli 0111:B4 LPS at 8 uM incubated for 30 mins by fluorescence based assay relative to control
[6] = target: Toll-like receptor 4 (Homo sapiens) (UniProt O00206); assay: Inhibition of LPS-induced human TLR4 activation expressed in HEK-Blue hTLR4 cells assessed as decrease in SEAP activity at 12.5 uM pretreated for 1 hr followed by LPS treatment for 16 hrs by absorbance based assay relative to control; assay type: cell-based; conditions: time 17.0 hrs
[7] = target: T1, Toll-like receptor 4 (Mus musculus) (UniProt Q9QUK6); assay: Inhibition of LPS-induced TLR4 activation in mouse RAW264.7 cells assessed as decrease in JNK phosphorylation at 2 uM pretreated for 1 hr followed by LPS treatment for 30 mins by Western blot analysis relative to control; assay type: cell-based; conditions: time 90.0 min
T1 sequence (whole entry): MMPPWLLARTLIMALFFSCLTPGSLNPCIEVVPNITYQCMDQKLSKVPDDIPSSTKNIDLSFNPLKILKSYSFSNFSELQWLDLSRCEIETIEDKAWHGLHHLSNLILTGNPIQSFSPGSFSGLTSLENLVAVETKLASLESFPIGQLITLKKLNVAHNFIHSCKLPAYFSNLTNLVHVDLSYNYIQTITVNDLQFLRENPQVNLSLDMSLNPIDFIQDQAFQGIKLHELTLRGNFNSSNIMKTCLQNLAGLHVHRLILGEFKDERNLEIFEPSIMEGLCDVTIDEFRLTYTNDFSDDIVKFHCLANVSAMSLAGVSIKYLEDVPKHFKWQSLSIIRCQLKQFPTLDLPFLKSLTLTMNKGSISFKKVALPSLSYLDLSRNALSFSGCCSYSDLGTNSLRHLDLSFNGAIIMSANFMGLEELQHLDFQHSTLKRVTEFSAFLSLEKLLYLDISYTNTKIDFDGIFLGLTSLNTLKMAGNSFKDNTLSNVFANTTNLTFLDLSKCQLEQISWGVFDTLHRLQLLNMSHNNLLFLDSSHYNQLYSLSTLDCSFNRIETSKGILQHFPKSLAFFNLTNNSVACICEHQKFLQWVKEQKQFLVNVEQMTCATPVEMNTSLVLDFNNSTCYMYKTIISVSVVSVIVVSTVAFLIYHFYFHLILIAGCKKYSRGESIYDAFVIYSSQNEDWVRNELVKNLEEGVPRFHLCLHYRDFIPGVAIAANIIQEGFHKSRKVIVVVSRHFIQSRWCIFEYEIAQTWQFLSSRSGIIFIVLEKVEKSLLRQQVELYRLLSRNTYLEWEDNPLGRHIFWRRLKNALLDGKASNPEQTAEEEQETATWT

[8] = target: T1, Toll-like receptor 4 (Mus musculus); assay: Inhibition of LPS-induced TLR4 activation in mouse RAW264.7 cells assessed as decrease in p38 MAPK phosphorylation at 2 uM pretreated for 1 hr followed by LPS treatment for 30 mins by Western blot analysis relative to control; assay type: cell-based; conditions: time 90.0 min
[9] = target: T1, Toll-like receptor 4 (Mus musculus); assay: Inhibition of LPS-induced TLR4 activation in mouse RAW264.7 cells assessed as decrease in phosphorylated NF-kappaB nuclear translocation at 10 uM pretreated for 1 hr followed by LPS treatment for 30 mins by CLSM analysis; assay type: cell-based; conditions: time 90.0 min
Acinetobacter baumannii = assay: Antibacterial activity against carbapenem-resistant Acinetobacter baumannii-induced sepsis shock in ICR mouse model assessed as bacterial growth inhibition in kidney at 1 mg/kg, ip pretreated with compound for 1 hr followed by bacterial infection measured after 16 hrs relative to control; assay type: functional; conditions: time 17 hrs
Mus musculus [10] = assay: (§1) Antiseptic activity in sepsis shock ICR mouse model infected with carbapenem-resistant Acinetobacter baumannii assessed as decrease in TNF-alpha level in serum at 1 mg/kg, ip pretreated with compound for 1 hr followed by bacterial infection measured after 16 hrs relative to control; assay type: functional; parameters: scale not given: the % may be the effect or the level left; conditions: time 17 hrs
Mus musculus [11] = assay: Antiseptic activity in sepsis shock ICR mouse model infected with carbapenem-resistant Acinetobacter baumannii assessed as decrease in ALT level in serum at 1 mg/kg, ip pretreated with compound for 1 hr followed by bacterial infection measured after 16 hrs relative to control; assay type: functional; parameters: scale not given: the % may be the effect or the level left; conditions: time 17 hrs
Mus musculus [12] = assay: as §1, with “recovery of neutrophil infiltration” for “decrease”, “lungs” for “TNF-alpha level in serum”, “by H and E staining based analysis” for “relative to control”; assay type: functional, organism-based; conditions: time 17.0 hrs
Mus musculus [13] = assay: Antiseptic activity in sepsis shock ICR mouse model infected with carbapenem-resistant Acinetobacter baumannii assessed as reduction in bacterial count in lungs at 1 mg/kg, ip pretreated with compound for 3 hrs followed by bacterial infection measured after 16 hrs relative to control; assay type: functional; parameters: scale not given: the % may be the effect or the level left; conditions: time 19 hrs
Mus musculus [14] = assay: (§2) Antiseptic activity in sepsis shock ICR mouse model infected with carbapenem-resistant Acinetobacter baumannii assessed as reduction in bacterial count in lungs at 1 mg/kg, ip pre-infected with bacteria followed by compound administration 3 hrs post-infection measured after 16 hrs relative to control; assay type: functional; parameters: scale not given: the % may be the effect or the level left
Mus musculus [15] = assay: Antiseptic activity in sepsis shock ICR mouse model infected with carbapenem-resistant Acinetobacter baumannii assessed as reduction in bacterial count in liver at 1 mg/kg, ip pretreated with compound for 1 hr followed by bacterial infection measured after 16 hrs relative to control; assay type: functional; parameters: scale not given: the % may be the effect or the level left; conditions: time 17 hrs
Mus musculus [16] = assay: as §2, with “liver” for “lungs”; assay type: functional; parameters: scale not given: the % may be the effect or the level left
Mus musculus [17] = assay: Antiseptic activity in sepsis shock ICR mouse model infected with carbapenem-resistant Acinetobacter baumannii assessed as reduction in bacterial count in kidney at 1 mg/kg, ip pretreated with compound for 3 hrs followed by bacterial infection measured after 16 hrs relative to control; assay type: functional; parameters: scale not given: the % may be the effect or the level left; conditions: time 19 hrs
Mus musculus [18] = assay: as §2, with “kidney” for “lungs”; assay type: functional; parameters: scale not given: the % may be the effect or the level left
Mus musculus [19] = assay: Antiseptic activity in sepsis shock ICR mouse model infected with carbapenem-resistant Acinetobacter baumannii assessed as reduction in serum IL-6 level at 1 mg/kg, ip pretreated with compound for 1 hr followed by bacterial infection measured after 16 hrs relative to control; assay type: functional; parameters: scale not given: the % may be the effect or the level left; conditions: time 17 hrs
Mus musculus [20] = assay: Antiseptic activity in sepsis shock ICR mouse model infected with carbapenem-resistant Acinetobacter baumannii assessed as reduction in serum IL-6 level at 1 mg/kg, ip pretreated with compound for 3 hrs followed by bacterial infection measured after 16 hrs relative to control; assay type: functional; parameters: scale not given: the % may be the effect or the level left; conditions: time 19 hrs
Mus musculus [21] = assay: Antiseptic activity in sepsis shock ICR mouse model infected with carbapenem-resistant Acinetobacter baumannii assessed as reduction in serum IL-6 level at 1 mg/kg, ip pre-infected with bacteria followed by compound administration 1 hr post-infection measured after 16 hrs relative to control; assay type: functional; parameters: scale not given: the % may be the effect or the level left

Chain of Toll-like receptor 4 (Homo sapiens) (O00206 whole entry): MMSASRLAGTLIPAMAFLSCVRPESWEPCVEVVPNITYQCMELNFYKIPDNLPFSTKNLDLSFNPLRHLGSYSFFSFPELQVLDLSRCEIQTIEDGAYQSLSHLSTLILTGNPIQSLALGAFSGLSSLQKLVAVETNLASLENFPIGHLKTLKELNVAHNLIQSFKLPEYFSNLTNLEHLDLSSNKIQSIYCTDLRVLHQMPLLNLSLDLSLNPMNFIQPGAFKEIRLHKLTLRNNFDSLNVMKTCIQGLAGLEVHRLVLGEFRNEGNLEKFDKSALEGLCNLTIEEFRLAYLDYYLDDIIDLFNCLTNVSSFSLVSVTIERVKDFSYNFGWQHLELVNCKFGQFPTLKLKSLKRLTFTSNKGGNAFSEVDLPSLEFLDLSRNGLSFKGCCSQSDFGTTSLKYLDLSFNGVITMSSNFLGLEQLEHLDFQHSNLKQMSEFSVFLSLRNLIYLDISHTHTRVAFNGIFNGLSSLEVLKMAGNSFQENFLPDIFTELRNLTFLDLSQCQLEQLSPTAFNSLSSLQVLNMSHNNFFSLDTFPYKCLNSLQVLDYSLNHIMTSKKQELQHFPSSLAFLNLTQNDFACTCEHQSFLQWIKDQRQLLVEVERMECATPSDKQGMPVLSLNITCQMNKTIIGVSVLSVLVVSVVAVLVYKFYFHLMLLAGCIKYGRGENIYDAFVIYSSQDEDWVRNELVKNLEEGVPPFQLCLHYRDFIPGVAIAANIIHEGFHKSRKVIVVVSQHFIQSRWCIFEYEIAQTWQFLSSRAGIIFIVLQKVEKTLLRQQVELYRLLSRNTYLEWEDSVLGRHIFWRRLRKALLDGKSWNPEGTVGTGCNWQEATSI

H-GVFRLKKWIKKVIKKWGK-NH2
Activity (Escherichia coli): inactive
Stability [1]: Unstable

H-GVFRLKKWLKKVKKWGK-NH2
Activity (Pseudomonas aeruginosa [2]): inactive
Activity (Pseudomonas aeruginosa [3]): Active
Activity (Lipopolysaccharide (LPS) [4]): Dose-dependent-effect; Activity Similar To Ll-37
Activity (Lipopolysaccharide (LPS) [5]): 38%
inhibition [6]: 92.1%
inhibition [7]: 52%
inhibition [8]: 63%
inhibition [9]: Active
inhibition in vivo at 1 mg/kg (Acinetobacter baumannii): 88.1%
Activity (Mus musculus [10]): 49.4%
Activity (Mus musculus [11]): 67.8%
Activity (Mus musculus [12]): Active
Activity (Mus musculus [13]): 98%
Activity (Mus musculus [14]): 25%
Activity (Mus musculus [15]): 99.7%
Activity (Mus musculus [16]): 90.7%
Activity (Mus musculus [17]): 98.5%
Activity (Mus musculus [18]): 91.8%
Activity (Mus musculus [19]): 100%
Activity (Mus musculus [20]): 99.9%
Activity (Mus musculus [21]): 97.9%
